{
  "source": "patent US9714229B2",
  "about": "“Crystal of tetracyclic compound” (Chugai Seiyaku Kabushiki Kaisha, priority 2014, dated 2017)",
  "key": {"[1]": {"assay": "Investigation on transformation of crystal form of type II crystal due to humidity (powder X-ray diffraction)", "format": "physicochemical", "procedure": "For the type I, type II, and type III crystals of a monohydrochloride of 9-ethyl-6,6-dimethyl-8-(4-morpholin-4-yl-piperidin-1-yl)-11-oxo-6,11-dihydro-5H-benzo[b]carbazole-3-carbonitrile, the powder X-ray diffraction was measured under the following conditions. The measurement results for the type II crystal, the type III crystal, and the type I crystal are shown in FIGS. 1, 2, and 3. • Measuring apparatus: X'Pert-Pro MPD (manufactured by PANalytical HV) • Anticathode: Cu • Tube voltage: 45 kV • Tube current: 40 mA • Step width: 0.02 • Scan axis: 20 • Sampling time per: 43 seconds • Scan range: 3 to 40°\nIn order to investigate the transformation of the crystal form of the type II crystal of the monohydrochloride of 9-ethyl-6,6-dimethyl-8-(4-morpholin-4-yl-piperidin-1-yl)-11-oxo-6,11-dihydro-5H-benzo[b]carbazole-3-carbonitrile due to humidity, samples were placed in the following humidity conditions, and changes in crystal form were investigated using the powder X-ray diffraction.\nTest Conditions 1 (Investigation on Transformation of Crystal form of Type II Crystal at Low Humidity)\n• Amount of sample: About 17 mq • Temperature: Constant temperature of about 25° C. • Atmospheric gas: Dry nitrogen • Flow rate of atmospheric gas: 200 sccm (ml/min) • Mass change rate: 0.002 dm/dt • Relative humidity: Samples were placed at a relative humidity of 0% RH • Minimum waiting time: 10 min • Maximum waiting time: 1200 min. Test Conditions 2 (Iinvestigation on Transformation of Crystal Form of Type II Crystal at High Humidity) • Amount of sample: About 16 mg • Temperature: Constant temperature of about 25° C. • Atmospheric s: Dry nitrogen • Flow rate of atmospheric gas: 200 sccm (ml/min) • Mass change rate: 0.002 dm/dt (%/min) • Relative humidity: Samples were placed at a relative humidity of 70% RH • Minimum waiting time: 10 min • Maximum waiting time: 1200 min"}, "[2]": {"assay": "Measurement of vapor sorption isotherm of type II crystal (DVS-1)", "format": "physicochemical", "settings": "for weight change rate (%): about 25° C.", "procedure": "For the type II crystal of the monohydrochloride of 9-ethyl-6,6-dimethyl-8-(4-morpholin-4-yl-piperidin-1-yl)-11-oxo-6,11-dihydro-5H-benzo[b]carbazole-3-carbonitrile (about 5 mg), the vapor sorption isotherm was measured using a dynamic vapor sorption isotherm instrument: DVS-1 (Surface Measurement Systems) under the following conditions.\n• Temperature: Constant temperature of about 25° C. • Atmospheric gas: Dry nitrogen • Flow rate of atmospheric gas: 200 sccm (ml/min) • Minimum waiting time: 10 min • Maximum waiting time: 1200 min • Mass change rate: 0.002 dm/dt (% min), where the mass change rate was 0.001 dm/dt (% min) at 5, 10, 15, 55, 60, and 65% RH.\nRelative humidity: Relative humidity was varied to 0, 5, 10, 15, 20, 30, 40, 50, 55, 60, 65, 70, 80, 90, 80, 70, 65, 60, 55, 50, 40, 30, 20, 15, 10, 5, and 0% RR in this order. Such variation was regarded as one cycle, and three cycles were carried out. The weight change rate (%) of the type II crystal, when the temperature environment was varied from a relative humidity of 0% RH to 90% RH at about 25° C., was 3.7% in the range of a relative humidity from 0% RH to 15% RH, 0.05% in the range of a relative humidity from 15% RH to 55% RH, 11% in the range of a relative humidity from 55% RH to 65% RH, and 0.04% in the range of a relative humidity from 65% RH to 90% RH."}},
  "data": [
    {"smiles": "CCc1cc2c(cc1N1CCC(N3CCOCC3)CC1)C(C)(C)c1[nH]c3cc(C#N)ccc3c1C2=O", "note": "[type II crystal, 9-ethyl-6,6-dimethyl-8-(4-morpholin-4-yl-piperidin-1-yl)-11-oxo-6,11-dihydro-5H-benzo[b]carbazole-3-carbonitrile]", "values": [
      {"measurement": "time after which crystal form had returned to the original form when allowed to stand in the air", "setting": "[1]; after storage at 70% RH, powder X-ray diffraction measured over time", "result": 4, "unit": "h"},
      {"measurement": "time to return to the original crystal form when allowed to stand in the air", "setting": "[1]; after storage at low humidity (0% RH)", "result": "within one hour"},
      {"measurement": "relative humidity at which the crystal absorbs moisture and transforms into another crystal form containing water of crystallization (high humidity environment)", "setting": "[1]; inferred from the XRPD results", "result": "≥ 65", "unit": "RH"},
      {"measurement": "relative humidity at which the crystal dehydrates to an anhydrate (low humidity environment)", "setting": "[1]; inferred from the XRPD results", "result": "≤ 15", "unit": "% RH"},
      {"measurement": "change in crystal form on storage at low humidity", "setting": "[1]; relative humidity 0% RH, about 25° C., dry nitrogen, powder X-ray diffraction (FIG. 4)", "result": "transformation into another crystal form was caused"},
      {"measurement": "change in crystal form on storage at high humidity", "setting": "[1]; relative humidity 70% RH, about 25° C., powder X-ray diffraction (FIG. 5)", "result": "transformation into another crystal form was caused"},
      {"measurement": "form inferred from molecular weight and mass change rate in high humidity environment", "setting": "[2]; humidity of 65% RH or more", "result": "transformed into a monohydrochloride tetrahydrate"},
      {"measurement": "weight change rate (%)", "setting": "[2]; relative humidity from 0% RH to 15% RH", "result": 3.7, "unit": "%"},
      {"measurement": "weight change rate (%)", "setting": "[2]; relative humidity from 15% RH to 55% RH", "result": 0.05, "unit": "%"},
      {"measurement": "weight change rate (%)", "setting": "[2]; relative humidity from 55% RH to 65% RH", "result": 11, "unit": "%"},
      {"measurement": "weight change rate (%)", "setting": "[2]; relative humidity from 65% RH to 90% RH", "result": 0.04, "unit": "%"},
      {"measurement": "form inferred from molecular weight and mass change rate on storage at low humidity", "setting": "[2]; stored in an atmosphere of 0% RH", "result": "transformed into a monohydrochloride"}
    ]}
  ]
}
